Source: patent US8883504B2, “Cell differentiation suppressing agent, method of culturing cells using the same, culture solution, and cultured cell line” (Asahi Kasei Kabushiki Kaisha, priority 2003, dated 2014)

Columns and labels:
SSEA-1 antigen = assay: Evaluation of the expression level of SSEA-1 antigen 1 (flow cytometry); type: cell-based, mouse; conditions: D3ES cells, 7 days, FIG. 8
Method: For the D3ES cells prepared by the method described in (3) preparation of a mouse ES cell of Example 1, 8×10^4 cells were seeded in a 10 cm-diameter cell culture dish coated previously with a 0.1% aqueous gelatin solution to make 10 mL of the ES cell assay medium. 1 mL of the differentiation inhibiting agent A to F, which were dissolved in dimethylsulfoxide (DMSO) or culture medium or their mixture to make 40 μg/mL per each dish, or ESGRO, which was adjusted to make 10^4 unit/mL, was added, and culturing was carried out at 37° C. in 5% […] incubator for 7 days. To the culture medium was added DMSO to make the final concentration 0.1% or lower.
The cells cultured in (1) ES cell differentiation inhibition assay 2 as described above were washed twice with PBS, and were removed from the dish with a cell scraper. 300 μL of Hanks balanced salt solution (HBSS, Invitrogen Corp. made) containing 2% FBS was added to give 6×10^5 cells. 30 μL of MX-SSEA-1 antibody (Kyowa Medex Corp. made) diluted 50 folds with HBSS was added, and left stand for 40 minutes on ice. […] The sample used for flow cytometry was measured after passed through a nylon mesh with a 100 μm pore size to eliminate a coagulated mass. […]

[1] = system: cynomolgus monkey ES cells; assay: ES cell differentiation inhibition assay 6, alkaline phosphatase staining; type: cell-based; conditions: for proportion of number of alkaline phosphatase stained colony to number of the total colony, in comparison with DMSO (0.1%): Matrigel-coated dish, cultured for 2 days, FIG. 15
Method: As the medium for culturing cynomolgus monkey ES cells, DME/F-12, 1:1 (SIGMA D6421) was added with respective factors in the final concentration as presented below to prepare a cynomolgus monkey ES cell culture medium: 20% knockout serum replacement: KSR (Invitrogen Corp. made, 10828-028), 1× nonessential amino acids (SIGMA M7145), 2 mM L-Glutamine (SIGMA G7513), 1 mM sodium pyruvate (SIGMA S8636), 1× penicillin/streptomycin solution (SIGMA P0781). The culture medium for a mouse feeder cell used for culturing cynomolgus monkey ES cells was prepared by adding respective factors to DMEM (Invitrogen Corp. made, 11960-044) in the final concentration shown below: 10% bovine fetus serum (Invitrogen Corp. made), 2 mM L-glutamine (Sigma G7513), 1× penicillin/streptomycin solution (Sigma P0781).
Gelatin (SIGMA Corp. made, Type A: from porcine ESkin, G2500) was dissolved in distilled water in 0.1% concentration, and 5 mL of the thus prepared 0.1% sterilized aqueous gelatin solution was added in a 6 cm-diameter cell culture dish, and then left stand at 37° C. for 30 minutes or longer. The aqueous gelatin solution was removed, and 2×10^6 mouse embryonic primary culture cell (Invitrogen Corp. made, YE9284400) treated with mitomycin, C (Kyouwa Hakkou Corp. made) was seeded and cultured by using the culture medium for the feeder cell as described above at 37° C. in 5% CO2 incubator (Tabai Espec Corp. made) for 5 hours or longer. The cynomolgus monkey ES cells (Tanabe Seiyaku, K.K. made) was seeded on mouse embryonic primary culture cell, and cultured and proliferated in 5 mL of cynomolgus monkey ES cell culture medium at 37° C. in 5% CO2 incubator for 3 days.
The cynomolgus monkey ES cells cultured by the method described in (1) culture of cynomolgus monkey ES cells as described above were washed with PBS and, then, a 0.1% collagenase solution (Wako Corp. made, 032-10534) dissolved in DMEM (Invitrogen Corp. made 11960-044), or a trypsin solution (prepared by mixing 10 mL of a 2.5% trypsin solution (Invitrogen Corp. made 15090-046), 20 mL of Knockout Serum Replacement (Invitrogen Corp. made 10828-028), 1 mL of a 100 mM CaCl2 aqueous solution and 69 mL of PBS) was added, and incubation was carried out at 37° C. for 5 minutes. 5 mL of the cynomolgus monkey ES cell culture medium was added, cell colonies were removed by using a small sized pipette and, then, dispersed, transferred to a 15 mL sterilized tube, and centrifuged at 1000 rpm for about 5 minutes by using the micro centrifuge (TOMY SEIKO made) to prepare pellets. The supernatant was removed, and then the cells were suspended again in 5 mL of the fresh ES cell culture medium to obtain the cynomolgus monkey ES cells. […]

SMILES	average fluorescence intensity per 1 cell (SSEA-1 antigen expression intensity per 1 cell) in comparison with medium without agent (SSEA-1 antigen)	alkaline phosphatase staining of subcultured cells in comparison with DMSO ([1]; 3rd day after subculture after 3-day culture, FIG. 16)	proportion of number of alkaline phosphatase stained colony to number of the total colony, in comparison with DMSO (0.1%) [1]	effect on alkaline phosphatase staining in the presence of 6-bromoindirubin-3-oxime ([1]; subcultured, in the presence of 6-bromoindirubin-3-oxime, FIG. 16)
CC1(C)Cc2ccccc2C(=C(N=Nc2cccc(Cl)c2)C(N)=O)N1 [C, 2-(3-chloro-phenylazo)-2-(3,3-dimethyl-3,4-dihydro-2H-isoquinoline-1-ylidene)-acetamide]	significantly high			
CC1(C)Cc2ccccc2C(=C(N=Nc2cccc([N+](=O)[O-])c2)C(N)=O)N1 [E, 2-(3,3-dimethyl-3,4-dihydro-2H-isoquinoline-1-ylidene)-2-(3-nitro-phenylazo)-acetamide]	significantly high			
COc1ccc(N=NC(C(N)=O)=C2NC(C)(C)Cc3ccccc32)cc1 [F, 2-(3,3-dimethyl-3,4-dihydro-2H-isoquinoline-1-ylidene)-2-(4-methoxy-phenylazo)-acetamide]		stained significantly	significantly higher proportion of colonies stained with alkaline phosphatase	reinforced
CC(=O)c1ccc(/N=N/C(C(N)=O)=C2/NC(C)(C)Cc3ccccc32)cc1 [compound B, 2-(4-acetyl-phenylazo)-2-(3,3-dimethyl-3,4-dihydro-2H-isoquinoline-1-ylidene)-acetamide]			significantly higher proportion of colonies stained with alkaline phosphatase	
